Assay results published in PMC7482845, “G10 is a direct activator of human STING” (PLoS ONE, 2020).

Key:
[1] = target: HAQ variant of human STING (Homo sapiens, UniProt Q86WV6, G230A/R293Q/R71H); assay: Luciferase (ISRE.ISG reporter) assay in HEK293T cells stably expressing HAQ hSTING; assay type: cell-based; details: ISRE.ISG54 luciferase reporter, 18 hours, compared with R232 and H232
Description: • a) Stable STING expressing cells. Stable HEK293T STING-expressing cell lines were generated using plasmids purchased from Invivogen, CA, USA, that contain STING cDNA cloned into the pUNO-1 vector under the hEF1-HTLV promoter as well as the Blasticidin selection cassette. The human STING plasmids corresponding to the R232, H232 and HAQ variants were directly procured from Invivogen while the AQ and Q variants were created by mismatch PCR using cDNA from HAQ.STING and R232.STING variants respectively. These vectors were individually transfected into HEK293T cells using Lipofectamine (Invitrogen) and transfected cells were expanded under Blasticidin selection. These cells were further subjected to clonal selection using the limiting dilution method to obtain clonally pure populations of HEK293T cells expressing each of the five human STING variants. Clones with minimal ligand independent activation of STING were chosen for cellular experiments. • b) N-His R232.hSTING HEK293T cells. HEK293T cells stably expressing N-His R232.hSTING were generated by the following described method. N-His R232.hSTING.pcDNA Myc B plasmid was transfected into HEK293T cells using Lipofectamine reagent (Invitrogen) and the transfected cells were selected under Hygromycin. […]

TBK1 = TBK1 (Homo sapiens, UniProt Q9UHD2); assay: TBK1 kinase assay in the presence of G10; assay type: biochemical; details: S1 Table
[2] = test system: immortalized human fibroblasts; set-up: method as in PMID 26646986; details: cited from earlier work

Chain of HAQ variant of human STING (Q86WV6 whole entry R71H/G230A/R293Q): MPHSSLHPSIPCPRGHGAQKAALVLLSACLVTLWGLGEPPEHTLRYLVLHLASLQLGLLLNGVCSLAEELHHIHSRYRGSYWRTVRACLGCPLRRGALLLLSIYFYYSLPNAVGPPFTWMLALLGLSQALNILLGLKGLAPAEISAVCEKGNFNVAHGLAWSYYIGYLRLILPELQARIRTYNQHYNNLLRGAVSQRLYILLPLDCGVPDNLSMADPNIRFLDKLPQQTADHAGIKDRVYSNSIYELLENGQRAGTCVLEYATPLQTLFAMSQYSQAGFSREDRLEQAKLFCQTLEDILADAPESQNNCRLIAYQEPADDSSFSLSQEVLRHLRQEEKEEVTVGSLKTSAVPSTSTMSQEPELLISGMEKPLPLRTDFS
Chain of TBK1 (Q9UHD2 whole entry): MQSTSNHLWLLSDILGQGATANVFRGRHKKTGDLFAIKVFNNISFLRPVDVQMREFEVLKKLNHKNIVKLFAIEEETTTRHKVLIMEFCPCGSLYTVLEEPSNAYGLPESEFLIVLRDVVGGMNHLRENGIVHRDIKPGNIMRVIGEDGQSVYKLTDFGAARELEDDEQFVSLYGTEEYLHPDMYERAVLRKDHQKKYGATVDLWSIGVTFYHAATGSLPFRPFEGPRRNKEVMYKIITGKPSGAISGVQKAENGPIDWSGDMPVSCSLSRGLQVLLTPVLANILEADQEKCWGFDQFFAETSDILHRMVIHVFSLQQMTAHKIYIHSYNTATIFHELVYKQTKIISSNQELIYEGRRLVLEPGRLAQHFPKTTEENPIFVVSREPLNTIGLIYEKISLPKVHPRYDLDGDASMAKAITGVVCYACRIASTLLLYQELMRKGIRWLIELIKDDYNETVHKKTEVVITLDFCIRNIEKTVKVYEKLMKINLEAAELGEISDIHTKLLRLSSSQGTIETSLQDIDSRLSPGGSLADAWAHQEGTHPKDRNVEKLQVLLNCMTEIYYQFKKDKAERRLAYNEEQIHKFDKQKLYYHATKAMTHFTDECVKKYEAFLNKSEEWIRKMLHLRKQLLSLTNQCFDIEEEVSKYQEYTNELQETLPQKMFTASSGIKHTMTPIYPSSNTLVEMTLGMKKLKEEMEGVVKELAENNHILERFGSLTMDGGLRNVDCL

In the case of `O=C(NCc1ccco1)c1ccc2c(c1)N(Cc1c(F)cccc1Cl)C(=O)CS2` [Compound G10, 4-(2-Chloro-6-fluorobenzyl)-N-(furan-2-ylmethyl)-3-oxo-3,4-dihydro-2H-benzo[b][1,4]thiazine-6-carboxamide], the “activity against the HAQ variant” value [1] is given as “less active”, the “effect on TBK-1 enzyme” value (TBK1) is given as “does not inhibit or activate” and the “activity in STING knockout fibroblasts” value ([2]; STING knockout fibroblasts) is given as “inactive”. For the same compound, the “activation of the NFκB pathway in immortalized human fibroblasts” value [2] was “did not activate”.
